Tested on: MvfR regulon
Assay: pqsA gene expression (pqsA-GFP reporter)
Type: cell-based, P. aeruginosa
Conditions: Pseudomonas aeruginosa

Q: How did the IC50 (read-out: IC50 pqsA (μM)) turn out when N#Cc1ccc(NC(=O)CC(=O)Nc2ccc(Br)cc2)cc1 [Compound 54] was run?
A: Its IC50 is 1.28 µM.

Q: And the activity at 10 µM (read-out: pqsA @10 uM (%), compound at 10 uM)?
A: Its activity at 10 µM is 8.8%.

Q: What about the activity at 50 µM (read-out: pqsA @50 uM (%), compound at 50 uM) of the same compound?
A: The activity at 50 µM was 7.93%.

Source: patent publication US11731946B2, “Broad spectrum antivirulence, anti-persistence compounds” (priority 2017, dated 2023)
